ChEMBL document CHEMBL1149135, “Aza-peptide Michael acceptors: a new class of inhibitors specific for caspases and other clan CD cysteine proteases” (J Med Chem, 2004)

Experiments:
Caspase-8 (Homo sapiens) = Caspase-8 (Homo sapiens) (UniProt Q14790); test: Compound was evaluated for potent inhibition of caspase-8
Caspase-6 (Homo sapiens) = biological target: T1, Caspase-6 (Homo sapiens) (UniProt P55212); test: Compound was evaluated for potent inhibition of caspase-6
T1 sequence (whole entry): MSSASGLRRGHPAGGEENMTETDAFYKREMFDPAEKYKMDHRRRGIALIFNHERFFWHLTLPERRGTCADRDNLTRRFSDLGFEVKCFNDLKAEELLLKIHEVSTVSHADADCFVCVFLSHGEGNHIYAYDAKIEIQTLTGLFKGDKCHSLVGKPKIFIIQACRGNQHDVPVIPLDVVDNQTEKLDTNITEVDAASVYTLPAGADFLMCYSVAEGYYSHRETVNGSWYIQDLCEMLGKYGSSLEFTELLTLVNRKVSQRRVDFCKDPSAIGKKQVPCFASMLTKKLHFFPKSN

Caspase-3 (Homo sapiens) = biological target: T2, Caspase-3 (Homo sapiens) (UniProt P42574); test: Compound was evaluated for potent inhibition of caspase-3
T2 sequence (whole entry): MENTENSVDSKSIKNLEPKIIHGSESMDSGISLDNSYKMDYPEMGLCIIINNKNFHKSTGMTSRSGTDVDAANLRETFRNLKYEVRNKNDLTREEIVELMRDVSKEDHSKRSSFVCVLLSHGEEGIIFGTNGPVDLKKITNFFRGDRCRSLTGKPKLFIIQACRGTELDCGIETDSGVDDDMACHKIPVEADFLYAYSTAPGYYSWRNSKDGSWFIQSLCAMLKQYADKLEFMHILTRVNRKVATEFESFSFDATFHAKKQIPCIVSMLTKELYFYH

[1] = test system: Lys-gingipain (Porphyromonas gingivalis); test: Compound was evaluated for irreversible inhibition of Lys-gingipain
[2] = test system: Clostripain (Clostridium histolyticum); test: Compound was evaluated for irreversible inhibition of clostripain

Sequence of Caspase-8 (Homo sapiens) (Q14790 217-374 limits assumed): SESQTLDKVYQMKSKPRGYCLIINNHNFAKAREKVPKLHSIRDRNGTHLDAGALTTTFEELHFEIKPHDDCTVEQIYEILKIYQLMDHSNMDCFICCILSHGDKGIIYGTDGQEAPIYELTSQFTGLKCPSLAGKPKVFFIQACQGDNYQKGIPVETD
Sequence of Caspase-8 (Homo sapiens) (Q14790 385-479 limits assumed): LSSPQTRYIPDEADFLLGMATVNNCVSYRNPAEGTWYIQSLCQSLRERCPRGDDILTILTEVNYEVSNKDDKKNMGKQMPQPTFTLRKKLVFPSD

Row | k2 (Caspase-8 (Homo sapiens)) | k2 (Caspase-6 (Homo sapiens)) | k2 (Caspase-3 (Homo sapiens)) | k2 [2] | Compound | k2 [1]
1 | 78200 M⁻¹ s⁻¹ | 3210 M⁻¹ s⁻¹ | 1.75e+06 M⁻¹ s⁻¹ |  | CC(C)[C@H](NC(=O)[C@H](CCC(=O)O)NC(=O)[C@H](CC(=O)O)NC(=O)OCc1ccccc1)C(=O)NN(CC(=O)O)C(=O)/C=C/C(=O)NCc1ccccc1 | 
2 | 237000 M⁻¹ s⁻¹ | 18700 M⁻¹ s⁻¹ | 5560 M⁻¹ s⁻¹ |  | CCOC(=O)/C=C/C(=O)N(CC(=O)O)NC(=O)[C@@H](NC(=O)[C@H](CCC(=O)O)NC(=O)[C@H](CC(C)C)NC(=O)OCc1ccccc1)[C@@H](C)O | 
3 | 98400 M⁻¹ s⁻¹ | 47600 M⁻¹ s⁻¹ | 4600 M⁻¹ s⁻¹ |  | CC(C)C[C@H](NC(=O)OCc1ccccc1)C(=O)N[C@@H](CCC(=O)O)C(=O)N[C@H](C(=O)NN(CC(=O)O)C(=O)/C=C/C(=O)OCc1ccccc1)[C@@H](C)O | 
4 | 121000 M⁻¹ s⁻¹ | 8470 M⁻¹ s⁻¹ | 1.7e+06 M⁻¹ s⁻¹ |  | CC(C)[C@H](NC(=O)[C@H](CCC(=O)O)NC(=O)[C@H](CC(=O)O)NC(=O)OCc1ccccc1)C(=O)NN(CC(=O)O)C(=O)/C=C/C(=O)OCc1ccccc1 | 
5 |  |  |  | 40800 M⁻¹ s⁻¹ | CCOC(=O)/C=C/C(=O)N(CCCCN)NC(=O)[C@H](CC(C)C)NC(=O)OCCc1ccccc1 | 3.28e+06 M⁻¹ s⁻¹

Second part, the compound before the results:

Row | Compound | k2 (Caspase-8 (Homo sapiens)) | k2 (Caspase-6 (Homo sapiens)) | k2 (Caspase-3 (Homo sapiens)) | k2 [2] | k2 [1]
6 | CC(C)C[C@H](NC(=O)OCc1ccccc1)C(=O)N[C@@H](CCC(=O)O)C(=O)N[C@H](C(=O)NN(CC(=O)O)C(=O)/C=C/C(=O)N(C)Cc1ccccc1)[C@@H](C)O | 169000 M⁻¹ s⁻¹ | 10800 M⁻¹ s⁻¹ | 6000 M⁻¹ s⁻¹ |  | 
7 | CCOC(=O)/C=C/C(=O)N(CCCN)NC(=O)[C@H](CC(C)C)NC(=O)OCCc1ccccc1 |  |  |  | 788 M⁻¹ s⁻¹ | 927000 M⁻¹ s⁻¹
8 | CCOC(=O)/C=C/C(=O)N(CC(=O)O)NC(=O)[C@@H](NC(=O)[C@H](CCC(=O)O)NC(=O)[C@H](CC(=O)O)NC(=O)OCc1ccccc1)C(C)C | 273000 M⁻¹ s⁻¹ | 35600 M⁻¹ s⁻¹ | 2.13e+06 M⁻¹ s⁻¹ |  | 
9 | CC(C)[C@H](NC(=O)[C@H](CCC(=O)O)NC(=O)[C@H](CC(=O)O)NC(=O)OCc1ccccc1)C(=O)NN(CC(=O)O)C(=O)/C=C/C(=O)N(C)Cc1ccccc1 | 90300 M⁻¹ s⁻¹ | 9500 M⁻¹ s⁻¹ | 2.64e+06 M⁻¹ s⁻¹ |  | 
